Results taken from US9062041B2 (Bayer Intellectual Property GmbH, priority 2011, dated 2015).

Key:
Format in all cases: cell-based
[1] = molecular target: EP2 subtype of the human PGE2 receptor (Homo sapiens, UniProt P43116); assay: cAMP antagonism test on the human EP2 receptor (HTRF cAMP detection); settings: hEP2 receptor, read-out: Antagonism hEP2 IC50
Procedure, shortened: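 Read-out is a competitive HTRF for cAMP: lysate cAMP displaces cAMP-d2 from Eu cryptate-labelled antibody, and antagonism raises the 665/620 nm ratio. Compound (0.8 nM–16.5 μM) added to EP2 cells 20 min at RT before 60 min PGE2 challenge (3× stock 1.5 nM) with IBMX, followed by 20 min lysis.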

[2] = molecular target: EP4 subtype of the human PGE2 receptor (Homo sapiens, UniProt P35408); assay: cAMP antagonism test on the human EP4 receptor (HTRF cAMP detection); settings: selectivity towards hEP4, IC50 measured by cAMP antagonism test
Procedure, shortened: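 Competitive HTRF cAMP read-out (cAMP-d2 vs Eu-cryptate anti-cAMP antibody, 665/620 nm ratio) on lysed human EP4 cells. Compound (0.8 nM–16.5 μM) applied 20 min at RT before 60 min PGE2 challenge (3× solution 0.3 nM, IBMX present); 20 min lysis precedes reading.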

human PGD receptor = molecular target: T1, human PGD receptor (Homo sapiens, UniProt Q13258); assay: cAMP antagonism test on the human prostaglandin D receptor (HTRF cAMP detection); settings: selectivity towards hDP, IC50 measured by cAMP antagonism test
T1 sequence (Q13258 1-359): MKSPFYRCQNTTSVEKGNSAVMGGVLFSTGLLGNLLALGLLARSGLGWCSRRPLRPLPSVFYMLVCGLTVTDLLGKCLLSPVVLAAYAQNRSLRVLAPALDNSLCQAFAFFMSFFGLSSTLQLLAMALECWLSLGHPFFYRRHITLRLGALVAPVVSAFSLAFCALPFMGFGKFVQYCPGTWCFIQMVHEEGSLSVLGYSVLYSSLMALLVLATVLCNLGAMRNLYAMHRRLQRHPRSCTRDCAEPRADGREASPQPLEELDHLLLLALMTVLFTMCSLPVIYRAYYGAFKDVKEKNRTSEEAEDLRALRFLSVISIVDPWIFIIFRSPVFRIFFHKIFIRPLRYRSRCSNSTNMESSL
Procedure, shortened: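 HTRF competition read-out (665/620 nm ratio ×10000), where higher FRET means less cAMP, i.e. antagonism. Compounds (0.8 nM–16.5 μM) were preincubated 20 min at RT with cells and cAMP-d2, PGD2 (3× solution, 6 nM) in IBMX-containing PBS added for 30 min at RT, then cells lysed 20 min.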

EP2 subtype of the human PGE2 receptor, sequence (P43116 whole entry): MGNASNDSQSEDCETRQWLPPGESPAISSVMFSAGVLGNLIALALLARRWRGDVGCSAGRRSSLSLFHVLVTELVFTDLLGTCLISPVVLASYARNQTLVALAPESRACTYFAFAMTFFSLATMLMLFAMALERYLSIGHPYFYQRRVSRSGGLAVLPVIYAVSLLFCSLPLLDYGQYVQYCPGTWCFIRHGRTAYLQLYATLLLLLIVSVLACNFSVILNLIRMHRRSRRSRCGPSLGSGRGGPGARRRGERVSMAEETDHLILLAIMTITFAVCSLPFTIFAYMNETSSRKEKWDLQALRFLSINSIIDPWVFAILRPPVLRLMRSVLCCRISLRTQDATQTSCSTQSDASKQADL
EP4 subtype of the human PGE2 receptor, sequence (P35408 whole entry): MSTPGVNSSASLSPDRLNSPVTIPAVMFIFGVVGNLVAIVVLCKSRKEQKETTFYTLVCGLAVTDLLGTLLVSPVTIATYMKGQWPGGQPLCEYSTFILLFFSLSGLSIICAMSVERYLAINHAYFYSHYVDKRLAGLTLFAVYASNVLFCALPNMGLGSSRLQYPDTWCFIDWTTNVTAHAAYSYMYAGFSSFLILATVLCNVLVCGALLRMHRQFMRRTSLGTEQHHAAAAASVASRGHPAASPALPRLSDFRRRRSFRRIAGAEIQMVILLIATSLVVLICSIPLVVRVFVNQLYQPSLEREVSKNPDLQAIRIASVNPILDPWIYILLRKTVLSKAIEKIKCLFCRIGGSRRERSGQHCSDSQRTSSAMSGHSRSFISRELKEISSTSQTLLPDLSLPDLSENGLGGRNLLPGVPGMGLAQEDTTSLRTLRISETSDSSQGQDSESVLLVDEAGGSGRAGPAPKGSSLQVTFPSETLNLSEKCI

Row | Structure (SMILES) | IC50 [1] | Selectivity hEP2/hEP4 [2] | Selectivity hEP2/hDP (human PGD receptor)
1 | Cc1c(C(=O)NCCOCC2CC2)ccc2nn(CC3CN(C(=O)c4ccc(Cl)cc4)C3)cc12 [Example 149, 2-{[1-(4-chlorobenzoyl)azetidin-3-yl]methyl}-N-[2-(cyclopropylmethoxy)ethyl]-4-methyl-2H-indazol-5-carboxamide] | 0.0296 µM | xxx (xxx > 100) | xxx (xxx > 100)
2 | Cc1c(C(=O)NCCOC(C)C)ccc2nn(CC3CCN(C(=O)c4ccc(Oc5ccc(F)cc5)cc4)CC3)cc12 [Example 98, 2-({1-[4-(4-fluoro-phenoxy)benzoyl]-piperidin-4-yl}-methyl)-N-(2-isopropoxyethyl)-4-methyl-2H-indazol-5-carboxamide] | 0.00707 µM | xxx (xxx > 100) | xxx (xxx > 100)
3 | COCCNC(=O)c1ccc2nn(CC3CCN(C(=O)c4cc(-c5ccccc5)no4)CC3)cc2c1C [Example 13, N-(2-methoxyethyl)-4-methyl-2-({1-[(3-phenylisoxazol-5-yl)carbonyl]piperidin-4-yl}methyl)-2H-indazol-5-carboxamide] | 0.0359 µM | xxx (xxx > 100) | xxx (xxx > 100)
4 | Cc1c(C(=O)NCC(F)(F)F)ccc2nn(CC3CCN(C(=O)c4ccc(-c5ccc(C(F)(F)F)cc5)cc4)CC3)cc12 [Example 315, 4-methyl-N-(2,2,2-trifluoroethyl)-2-[(1-{[4′-(trifluoromethyl)biphenyl-4-yl]-carbonyl}piperidin-4-yl)methyl]-2H-indazol-5-carboxamide] | 0.043 µM | xxx (xxx > 100) | xxx (xxx > 100)
5 | COCCNC(=O)c1ccc2nn(CC3CCN(C(=O)c4ccc(SC(F)(F)F)cc4)CC3)cc2c1C [Example 57, N-(2-methoxyethyl)-4-methyl-2-[(1-{4-[(trifluoromethyl)sulphanyl]benzoyl}piperidin-4-yl)methyl]-2H-indazol-5-carboxamide] | 0.00529 µM | xxx (xxx > 100) | xxx (xxx > 100)
6 | COc1c(C(=O)NCCSC(F)(F)F)ccc2nn(CC3CCN(C(=O)c4ccc(Cl)cc4)CC3)cc12 [Example 265, 2-{[1-(4-chlorobenzoyl)piperidin-4-yl]methyl}-4-methoxy-N-{2-[(trifluoromethyl)sulphanyl]ethyl}-2H-indazol-5-carboxamide] | 0.0315 µM | xxx (xxx > 100) | xxx (xxx > 100)
7 | Cc1c(C(=O)NCC(F)(F)F)ccc2nn(CC3CCN(C(=O)c4nc5ccccc5n4C)CC3)cc12 [Example 297, 4-methyl-2-({1-[(1-methyl-1H-benzimidazol-2-yl)carbonyl]piperidin-4-yl}-methyl)-N-(2,2,2-trifluoroethyl)-2H-indazol-5-carboxamide] | 0.46 µM | xx (xx: 10-100) | xx (xx: 10-100)
8 | Cc1c(C(=O)NCCOC(C)(C)C)ccc2nn(CC3CN(C(=O)c4ccc(Cl)cc4)C3)cc12 [Example 153, N-(2-tert-butoxyethyl)-2-{[1-(4-chlorobenzoyl)azetidin-3-yl]methyl}-4-methyl-2H-indazol-5-carboxamide] | 0.0608 µM | xxx (xxx > 100) | xxx (xxx > 100)
9 | COCCNC(=O)c1ccc2nn(CC3CN(C(=O)c4ccc(Cl)cc4F)C3)cc2c1C [Example 121, 2-{[1-(4-chloro-2-fluorobenzoyl)azetidin-3-yl]methyl}-N-(2-methoxyethyl)-4-methyl-2H-indazol-5-carboxamide] | 0.0155 µM | xxx (xxx > 100) | xxx (xxx > 100)
10 | COCCNC(=O)c1ccc2nn(CC3CCN(C(=O)c4ccc(S(F)(F)(F)(F)F)cc4)CC3)cc2c1C [Example 11, N-(2-methoxyethyl)-4-methyl-2-({1-[4-(pentafluoro-λ^6-sulphanyl)benzoyl]piperidin-4-yl}methyl)-2H-indazol-5-carboxamide] | 0.00814 µM | xxx (xxx > 100) | xxx (xxx > 100)
11 | Cc1c(C(=O)NCC(F)(F)F)ccc2nn(CC3CCN(C(=O)c4ncc(-c5ccccc5)o4)CC3)cc12 [Example 309, 4-methyl-2-({1-[(5-phenyloxazol-2-yl)carbonyl]piperidin-4-yl}methyl)-N-(2,2,2-trifluoroethyl)-2H-indazol-5-carboxamide] | 0.066 µM | xxx (xxx > 100) | xxx (xxx > 100)
12 | COCCNC(=O)c1ccc2nn(CC3CCN(C(=O)c4ccc(Oc5ccc(F)c(F)c5)cc4)CC3)cc2c1C [Example 359, 2-({1-[4-(3,4-difluorophenoxy)benzoyl]piperidin-4-yl}methyl)-N-(2-methoxy-ethyl)-4-methyl-2H-indazol-5-carboxamide] | 0.00699 µM | xxx (xxx > 100) | xxx (xxx > 100)
13 | COCCNC(=O)c1ccc2nn(CC3CCN(C(=O)c4ccc(-c5cnc(C(F)(F)F)nc5)cc4)CC3)cc2c1C [Example 382, N-(2-methoxyethyl)-4-methyl-2-[(1-{4-[2-(trifluoromethyl)pyrimidin-5-yl]-benzoyl}piperidin-4-yl)methyl]-2H-indazol-5-carboxamide] | 0.0194 µM | xxx (xxx > 100) | xxx (xxx > 100)
14 | COCCNC(=O)c1ccc2nn(CC3CN(C(=O)c4ccc(Cl)cc4F)C3)cc2c1OC [Example 257, 2-{[1-(4-chloro-2-fluorobenzoyl)azetidin-3-yl]methyl}-4-methoxy-N-(2-methoxyethyl)-2H-indazol-5-carboxamide] | 0.102 µM | xxx (xxx > 100) | xxx (xxx > 100)
15 | Cc1c(C(=O)NCC(F)(F)F)ccc2nn(CC3CN(C(=O)c4ccc(Oc5ccc(C(F)(F)F)cn5)cc4)C3)cc12 [Example 177, 4-methyl-N-(2,2,2-trifluoroethyl)-2-{[1-(4-{[5-(trifluoromethyl)pyridin-2-yl]oxy}benzoyl)azetidin-3-yl]methyl}-2H-indazol-5-carboxamide] | 0.118 µM | xxx (xxx > 100) | xxx (xxx > 100)
16 | O=C(NCCOCC1CC1)c1ccc2nn(CC3CCN(C(=O)c4ccc(Cl)cc4)CC3)cc2c1OCC(F)(F)F [Example 235, 2-{[1-(4-chlorobenzoyl)piperidin-4-yl]methyl}-N-[2-(cyclopropylmethoxy)-ethyl]-4-(2,2,2-trifluoroethoxy)-2H-indazol-5-carboxamide] | 0.0167 µM | xxx (xxx > 100) | xxx (xxx > 100)
17 | COCCNC(=O)c1ccc2nn(CC3CCN(C(=O)c4ccc(-c5ccccc5)c(F)c4)CC3)cc2c1C [Example 49, 2-({1-[(2-fluoro-biphenyl-4-yl)-carbonyl]piperidin-4-yl}methyl)-N-(2-methoxyethyl)-4-methyl-2H-indazol-5-carboxamide] | 0.00644 µM | xxx (xxx > 100) | xxx (xxx > 100)
18 | Cc1c(C(=O)NCC2CCCCO2)ccc2nn(CC3CCN(C(=O)c4ccc(Oc5ccc(C(F)(F)F)cc5)cc4)CC3)cc12 (racemic) [Example 248, (+/−)-4-methyl-N-(3,4,5,6-tetrahydro-2H-pyran-2-ylmethyl)-2-[(1-{4-[4-(trifluoromethyl)phenoxy]benzoyl}piperidin-4-yl)methyl]-2H-indazol-5-carboxamide] | 0.0147 µM | xxx (xxx > 100) | xxx (xxx > 100)
19 | Cc1c(C(=O)NCC(C)OC2CCC2)ccc2nn(CC3CN(C(=O)c4ccc(Cl)cc4)C3)cc12 (single isomer, unassigned) [Example 156, (R or S)-2-{[1-(4-chlorobenzoyl)azetidin-3-yl]methyl}-N-[2-(cyclobutyloxy)-propyl]-4-methyl-2H-indazol-5-carboxamide] | 0.184 µM | xx (xx: 10-100) | xx (xx: 10-100)
20 | Cc1c(C(=O)NCCS(C)(=O)=O)ccc2nn(CC3CCN(C(=O)c4ccc(Oc5ccc(C(F)(F)F)cn5)cc4)CC3)cc12 [Example 396, N-(2-mesylethyl)-4-methyl-2-{[1-(4-{[5-(trifluoromethyl)pyridin-2-yl]oxy}-benzoyl)piperidin-4-yl]methyl}-2H-indazol-5-carboxamide] | 0.018 µM | xxx (xxx > 100) | xxx (xxx > 100)
